The results in this text go back to patent US11524073B2, “Anti-human ADRB3 monoclonal antibody and application thereof in disease diagnosis and treatment” (priority 2017, dated 2022).

This assay has as its system Human glioma cells U87. Briefly: Glioma treatment in nude mice. The assay is classed as in vivo. Here is the method: Human glioma cells U87 were subcutaneously transplanted into the back of nude mice of 6 weeks old, which were used as the tumor model after tumor formation. In the experiment, the mice were divided into 4 groups with 8 mice in each group: normal control group, model control group, ADRB3 antibody treatment group, Gemcitabine and CD40 antibody combined treatment group. The ADRB3 antibody treatment group was intraperitoneally injected with 0.1 mg of ADRB3 antibody once every 5 days for a total of 6 weeks. The model control group was intraperitoneally injected with equivalent amount of normal saline.

Consider `Nc1ccn([C@@H]2O[C@H](CO)[C@@H](O)C2(F)F)c(=O)n1` [Gemcitabine], for which the “metastatic lesion in the lung” value was “some metastases are found”.
